Measurements published in patent publication US7238694B2, “Rifamycin imino derivatives effective against drug-resistant microbes” (Cumbre Pharmaceuticals, Inc., priority 2004, dated 2007).
Values after ≈ are worked out from the molar mass of the structure shown. Read-outs that look alike come from different tables or passages of the source.

How the values were obtained:
Format in all cases: cell-based
[1] = tested on: Staphylococcus aureus ATCC29213; test: MIC, microbroth dilution (NCCLS)
[2] = tested on: Staphylococcus aureus ATCC29213 rpoB^H418Y; test: microbe, parasite or virus in culture
[3] = tested on: Staphylococcus aureus MT1222 gyrA^A116E grlB^S80F; test: microbe, parasite or virus in culture
[4] = tested on: Staphylococcus epidermidis ATCC12228; test: MIC, microbroth dilution (NCCLS)
[5] = tested on: Streptococcus pneumoniae ATCC6303; test: MIC, microbroth dilution (NCCLS)
[6] = tested on: Streptococcus pyogenes ATCC19615; test: MIC, microbroth dilution (NCCLS)
[7] = tested on: Haemophilus influenzae ATCC10211; test: MIC, microbroth dilution (NCCLS)
[8] = tested on: Staphylococcus aureus ATCC29213 rpoB^D417Y; test: microbe, parasite or virus in culture
[9] = tested on: Enterococcus faecalis ATCC29212; test: MIC, microbroth dilution (NCCLS)
[10] = tested on: Escherichia coli ATCC25922; test: MIC, microbroth dilution (NCCLS)
[11] = tested on: Mycobacterium smegmatis ATCC700084; test: MIC, microbroth dilution (NCCLS)
[12] = MIC, panel of rifampin-susceptible Gram-positive strains; conditions: text summary over five rifampin-susceptible Gram-positive strains
[13] = tested on: H. influenzae ATCC 10211 and E. coli ATCC 25922; test: MIC, Gram-negative bacteria; conditions: text summary over two Gram-negative strains
[14] = rifS strain, Cation-Adjusted Mueller-Hinton Broth, 37° C., read-out: MIC
[15] = Staphylococcus aureus, ATCC29213, rifR strain, Cation-Adjusted Mueller-Hinton Broth, 37° C., read-out: MIC
[16] = cipR strain, Cation-Adjusted Mueller-Hinton Broth, 37° C., read-out: MIC
[17] = rifS strain, THY Broth with 1 mg/mL catalase, 5% CO2, 37° C., read-out: MIC
[18] = rifS strain, THY Broth, 37° C., read-out: MIC
[19] = rifS strain, BHI Broth with NAD and hematin, 37° C., read-out: MIC
[20] = Staphylococcus aureus, ATCC29213
[21] = rifR strain, Cation-Adjusted Mueller-Hinton Broth, 37° C.

Structure (SMILES) | MIC [1, 14] [µg/mL] | MIC [2, 15] [µg/mL] | MIC [3, 16] [µg/mL] | MIC [4, 14] [µg/mL] | MIC [5, 17] [µg/mL] | MIC [6, 18] [µg/mL] | MIC [7, 19] [µg/mL] | also measured
CO[C@H]1/C=C/O[C@@]2(C)Oc3c(C)c(O)c4c(O)c(c(/C=N/N5CCN(c6nc7c(cc6F)c(=O)c(C(=O)O)cn7C6CC6)CC5)c(O)c4c3C2=O)NC(=O)/C(C)=C\C=C\[C@H](C)[C@H](O)[C@@H](C)[C@@H](O)[C@@H](C)[C@H](OC(C)=O)[C@@H]1C [Example 35, 3-[4-(3-Carboxy-1-cyclopropyl-6-fluoro-4-oxo-1,4-dihydro-[1,8]naphthyridine-7-yl)-piperazin-1-yl-aminomethylenyl]-rifamycin SV] | 0.008 to 1 (≈ 0.00758 to 0.948 µM) | 0.06 to 16 (≈ 0.0569 to 15.2 µM) | 0.008 to 0.125 (≈ 0.00758 to 0.118 µM) | 0.008 to 0.1 (≈ 0.00758 to 0.0948 µM) | 0.008 to 0.06 (≈ 0.00758 to 0.0569 µM) | 0.008 to 0.03 (≈ 0.00758 to 0.0284 µM) | 0.125 to 4 (≈ 0.118 to 3.79 µM) | –
CO[C@H]1/C=C/O[C@@]2(C)Oc3c(C)c(O)c4c(O)c(c(/C=N/N5CCN(c6c(F)cc7c(=O)c(C(=O)O)cn(C8CC8)c7c6Cl)CC5)c(O)c4c3C2=O)NC(=O)/C(C)=C\C=C\[C@H](C)[C@H](O)[C@@H](C)[C@@H](O)[C@@H](C)[C@H](OC(C)=O)[C@@H]1C [Example 40, 3-[4-(3-Carboxy-8-chloro-1-cyclopropyl-6-fluoro-4-oxo-1,4-dihydroquinolin-7-yl)-piperazin-1-yl-aminomethylenyl]-rifamycin SV] | 0.008 to 1 (≈ 0.00735 to 0.919 µM) | 0.06 to 16 (≈ 0.0551 to 14.7 µM) | 0.008 to 0.125 (≈ 0.00735 to 0.115 µM) | 0.008 to 0.1 (≈ 0.00735 to 0.0919 µM) | 0.008 to 0.06 (≈ 0.00735 to 0.0551 µM) | 0.008 to 0.03 (≈ 0.00735 to 0.0276 µM) | 0.125 to 4 (≈ 0.115 to 3.67 µM) | –
COc1c(N2CCC(C(C)N/N=C/c3c4c(O)c5c(O)c(C)c6c(c5c3O)C(=O)[C@@](C)(O/C=C/[C@H](OC)[C@@H](C)[C@@H](OC(C)=O)[C@H](C)[C@H](O)[C@H](C)[C@@H](O)[C@@H](C)/C=C/C=C(/C)C(=O)N4)O6)C2)c(F)cc2c(=O)c(C(=O)O)cn(C3CC3)c12 (stereo partly shown) [Example 42, 3-({1-[1-(3-Carboxy-1-cyclopropyl-6-fluoro-8-methoxy-4-oxo-1,4-dihydro-quinolin-7-yl)-pyrrolidin-3-yl]-ethyl}-hydrazinomethylenyl)-rifamycin SV] | 0.008 to 1 (≈ 0.00719 to 0.899 µM) | 0.06 to 16 (≈ 0.0539 to 14.4 µM) | 0.008 to 0.125 (≈ 0.00719 to 0.112 µM) | 0.008 to 0.1 (≈ 0.00719 to 0.0899 µM) | 0.008 to 0.06 (≈ 0.00719 to 0.0539 µM) | 0.008 to 0.03 (≈ 0.00719 to 0.027 µM) | 0.125 to 4 (≈ 0.112 to 3.6 µM) | –
CO[C@H]1/C=C/O[C@@]2(C)Oc3c(C)c(O)c4c(O)c(c(/C=N/N5CCN(C)CC5)c(O)c4c3C2=O)NC(=O)/C(C)=C\C=C\[C@H](C)[C@H](O)[C@@H](C)[C@@H](O)[C@@H](C)[C@H](OC(C)=O)[C@@H]1C [rifampin, reference compound] | – | – | – | – | – | – | – | MIC [1]: 0.008 µg/mL (≈ 0.00972 µM); MIC [2, 20]: 7.8 µg/mL (≈ 9.48 µM); MIC [2, 21]: 7.8 µg/mL (≈ 9.48 µM); MIC [8, 20]: > 64 µg/mL; MIC [8, 21]: >64 µg/mL; MIC [3]: 0.004 µg/mL (≈ 0.00486 µM); MIC [4]: 0.03 µg/mL (≈ 0.0365 µM); MIC [5]: 0.061 µg/mL (≈ 0.0741 µM); MIC [6]: 0.013 µg/mL (≈ 0.0158 µM); MIC [9]: 0.98 µg/mL (≈ 1.19 µM); MIC [7]: 0.24 µg/mL (≈ 0.292 µM); MIC [10]: 16 µg/mL (≈ 19.4 µM); MIC ([11]; Mycolicibacterium smegmatis, ATCC700084): 64 µg/mL (≈ 77.8 µM); MIC ([11]; rifS strain, Middlebrook Broth plus ADC Enrichment, 37° C.): 64 µg/mL; MIC [12]: 0.008 to 1 µg/mL (≈ 0.00972 to 1.22 µM); MIC [13]: 0.24 to 16 µg/mL (≈ 0.292 to 19.4 µM)
